1 compound from patent US8217071B2, “Use of inhibitors of the degradation of p27, in particular Argyrin and derivatives thereof, for the treatment of proliferative diseases” (Helmholtz Zentrum für Infektionsforschung GmbH, priority 2007, dated 2012) can be followed below.

≈ marks a conversion by molar mass, not a printed value. Entries after “also recorded” stand apart in the source; their conditions may differ. Numbered stars: 1 amine (or outer) side, 2 acyl side, 3 side chain; on linkers, the order of the positions; unused ones are H or OH. Square brackets hold non-standard residues; d marks the D form. Peptide text beside a SMILES is read from it. dAla(ψthiazole) = C[C@@H](N[*:1])c1nc(C(=O)[*:2])cs1; Trp(4-OMe) = COc1cccc2[nH]cc(C[C@H](N)C(=O)O)c12; Dha = C=C(N)C(=O)O; Sar = CNCC(=O)O

The subject of one data set is 20S proteasome. The experiment in a line: 20S proteasome activity in peripheral blood cells after i.p. injection. Particulars: peripheral blood lymphocytes. The data set is classed as in vivo, mouse. The protocol:
The inventors therefore tested if Argyrin A induced p27^kip1 stabilization would be beneficial in the treatment of human colon cancer cell derived tumour xenografts. To analyze this the inventors first tested if Argyrin A was active after application in vivo. After intraperitoneal injection of Argyrin A, 20S proteasome was isolated from peripheral blood lymphocytes at different time points after injection. […] Based on this finding the inventors treated tumour bearing mice with 0.15 mg Argyrin per kilogram bodyweight injected intraperitoneally every three days.
At the indicated timepoints 20S proteasome was isolated from peripheral blood cells and the activity of the different proteasome subunits was determined as described (FIG. 1d). b) SW480 colon carcinoma cell lines mixed with matrigel were injected under the skin of nu/nu mice to establish xenotransplant tumours. Treatment with Argyrin A or bortezomib was started when these tumours reached a volume of 200 mm^3. […] The activity of the respective proteasome subunits was determined as described previously (FIG. 1d). e) Determination of the number of p27^kip1 positive cells in tumour tissue after Argyrin A treatment. […] At least 200 cells were counted on five independent sections to quantitate the number of apoptotic cells. […]
Proteasome assays using proteasome purified from cells or tissues were carried out in a 100 μL reaction volume containing 20 μg proteasome extract, 50 mmol/L EDTA and 60 μmol/L fluorogenic substrate (chymotrypsin-like (CT-L), trypsin-like (T-L) or caspase-like (C-L)) in ATP/DTT lysis buffer at 37° C. […] The rate of cleavage of fluorogenic peptide substrates was determined by monitoring the fluorescence of released amonomethylcoumarin using a Victor 1420 Multilabel counter (Wallac) at an excitation wavelength of 395 nm and emission wavelength of 460 nm over a period of 60 min.

In the next data set the test system is p27^kip1. The data set can be described thus: p27^kip1 half life in cycloheximide treated cells. The settings on record: HeLa and SW480 cells, cycloheximide 25 μg/mL. It counts as cell-based, human. The procedure:
The inventors therefore conclude that Argyrin A prevents the degradation of p27 due to its proteasome inhibitory activity in vivo and induces apoptosis or G1 arrest in a variety of different tumour cell lines.
(§1) The expression levels of p27^kip1 were determined at the indicated timepoints by western blotting and normalized against actin expression which was used as an internal control.

A further data set has as its system p53, p21, BAX and NfκB. The experiment in a line: Accumulation of proteasome substrates by western blotting. It counts as cell-based, human. Particulars: SW480 and HCT116 cell lines. The procedure:
as §1
Immunohistochemical staining of mouse tumour tissue, western Blotting and immunofluorescence experiments were done as previously described (Timmerbeul, I. et al. Testing the importance of p27 degradation by the SCFskp2 pathway in murine models of lung and colon cancer. Proc Natl Acad Sci USA 103, 14009-14 (2006). Kossatz, U. et al. C-terminal phosphorylation controls the stability and function of p27^kip1. Embo J 25, 5159-70 (2006).). The following antibodies were used: p27 (Cat. No. K25020-150; Transduction Labs), p21 (N20; Santa Cruz), p53 (FL-393; Santa Cruz), NfKB (C-20; Santa Cruz), Bax (P-19; Santa Cruz), Alexa fluor 488 (# A11001; Invitrogen), 20S-proteasome subunit beta 2 (Z) (PW9300; Bio-mol, for human cells), 20S-proteasome subunit beta 2 (Z) (PW8145; BIO TREND, for mouse cells); 20S proteasome subunit beta 1(Y) (PW8140; BIO TREND), 20S proteasome subunit beta 5 (PW8895; BIO TREND); PECAM Antibody clone MEC 13.3 (#550274; BD Pharmingen).

The nature of data set [1]: Body weight and tolerability of treated tumour bearing mice. It counts as in vivo.
The subject of a further data set is HeLa (cervix carcinoma). The data set can be described thus: Flow cytometry cell cycle / sub-G1 analysis. It counts as cell-based, human. The settings on record: at ranges of IC50; sub G1 phase fraction. The procedure:
as §1
(§2) MTT assays were done as previously described (Sasse, F. et al. Argyrins, immunosuppressive cyclic peptides from myxobacteria. I. Production, isolation, physico-chemical and biological properties. J Antibiot (Tokyo) 55, 543-51 (2002)). TUNEL staining of tissue sections was performed on 10 micrometer sections which were deparafinised and treated as recommended by the manufacturer. (In Situ Cell Death Detection Kit, Fluorescein; ROCHE, Cat #11 684 795 910). Flow cytometric analysis of cultured cells was done using a Becton Dickinson fluorescence cytometer as previously described (Malek, N. P. et al. A mouse knock-in model exposes sequential proteolytic pathways that regulate p27^Kip1 in G1 and S phase. Nature 413, 323-7 (2001)). Analysis of the distribution of cells in the cell cycle and the sub-G1 fraction was done using Cell Quest software. A histone-associated-DNA-fragments ELISA was used to determine the number of apoptotic cells according to manufacturers instructions (Roche #11 774425001).
In general terms: A flow cytometer gives signals particle by particle.

Data set [2] concerns SW480 colon carcinoma cell line. The data set can be described thus: Flow cytometry cell cycle / sub-G1 analysis. The data set is classed as cell-based, human. Particulars: at ranges of IC50; sub G1 phase fraction. The procedure:
as §1, §2

The subject of data set [3] is CaCo colon carcinoma cell line. The data set can be described thus: Flow cytometry cell cycle / sub-G1 analysis. The data set is classed as cell-based, human. Particulars: at ranges of IC50; sub G1 phase fraction. The protocol: as §1, §2
Data set [4] concerns HCT116 colon carcinoma cells. The data set can be described thus: Flow cytometry cell cycle / sub-G1 analysis. The settings on record: at ranges of IC50. The data set is classed as cell-based, human. The protocol:
as §1, §2

The test system of a further data set is A549 (lung cancer). The data set can be described thus: Flow cytometry cell cycle / sub-G1 analysis. It counts as cell-based, human. The settings on record: at ranges of IC50. The procedure: as §1, §2
In a further data set the test system is MCF7 (breast cancer). The data set can be described thus: Flow cytometry cell cycle / sub-G1 analysis. The settings on record: at ranges of IC50; sub G1 phase fraction. It counts as cell-based, human. The protocol: as §1, §2
Data set [5] has as its system SW-480 (colon cancer cell line). The experiment in a line: MTT-test proliferation of SW-480. The data set is classed as cell-based, human. The settings on record: half-maximal inhibition of proliferation. The procedure:
as §2
A general note: Formazan colour is commonly taken as a measure of viable cells.

A further data set relates to SW-480 (colon cancer). The experiment in a line: MIC (visual), serial dilution, SW-480. The data set is classed as cell-based, human. The settings on record: minimal concentration of a serial dilution exhibiting a visual effect. The source says: The following table summarizes the effects of argyrin-derivatives A to H on two cancer cell lines, H15 (cervix carcinoma) and SW-480 (colon cancer). In order to test the efficacy, a p27-GFP-clone was used.

`C=C1NC(=O)[C@@H](C)NC(=O)CNC(=O)[C@H](Cc2c[nH]c3cccc(OC)c23)NC(=O)[C@H](Cc2c[nH]c3ccccc23)NC(=O)c2csc(n2)[C@@H](C)NC(=O)CN(C)C1=O` [Argyrin A] (cyclo(W[Trp(4-OMe)]G[dA][Dha][Sar][dAla(ψthiazole)])): the “time at which all activities returned to base-line levels post injection” value in the data set on 20S proteasome (i.p.) turned out to be 72 h. Moreover, in the data set with 20S proteasome (i.p.), the “time of maximum inhibitory activity post injection” value worked out at 48 h. Further, the “proteasome activities after i.p. application” value in the data set on 20S proteasome (mice) is recorded as “inhibited all proteasome activities”. Also, the p27 turnover entry in the data set on p27^kip1 was “complete block”. Besides, the “levels of proteasome substrates p53, p21, BAX and NfκB” value in the data set on p53, p21, BAX and NfκB is “accumulated”. Besides, the “discomfort, weight loss, disease / tolerability” value in data set [1] is “very well tolerated; also recorded: did not observe any signs of discomfort, weight loss”. The cellular phenotype result is “underwent apoptosis” with HeLa (cervix carcinoma); “underwent apoptosis” in data set [2]; “underwent apoptosis” in data set [3]; “stopped to proliferate” in data set [4]; “stopped to proliferate” with A549 (lung cancer); “underwent apoptosis” with MCF7 (breast cancer). The “IC-50 SW-480” value in data set [5] is reported as “Ca. 0.05 μg/ml”. Further, the “MIC (visual) SW-480” value with SW-480 (colon cancer) stood at 4 µg/mL (≈ 4.85 µM).
